Results reported in ChEMBL document CHEMBL3045481, “Insecticide-induced resurgence of the whitebacked planthopper Sogatella furcifera (Horvath) (Hemiptera: Delphacidae) on rice varieties with different levels of resistance” (Crop Prot, 2011).

Experiments:
[1] = test system: Sogatella furcifera; assay: Insecticidal activity against Sogatella furcifera on insect-sensitive rice plant ARC6248 assessed as nymphal duration at 0.025% concentration (reference value: 14.48 days); format: functional
[2] = test system: Oryza sativa; assay: Effect on total sugar level in Sogatella furcifera-sensitive Oryza sativa (rice) plant ARC6248 leaf sheath measured per gram of dry weight at 0.025% concentration (reference value: 25.98 mg/g dry wt); format: ADME, organism-based; details: in vivo
[3] = test system: Oryza sativa; assay: Effect on total protein level in Sogatella furcifera-resistanct Oryza sativa (rice) plant PR116 leaf blade measured per gram of dry weight at 0.025% concentration (reference value: 21.67 mg/g fresh wt); format: ADME, organism-based; details: in vivo
[4] = test system: Oryza sativa; assay: Effect on total protein level in Sogatella furcifera-resistanct Oryza sativa (rice) plant PR116 leaf sheath measured per gram of dry weight at 0.025% concentration (reference value: 7.06 mg/g fresh wt); format: ADME, organism-based; details: in vivo
[5] = test system: Sogatella furcifera; assay: Insecticidal activity against Sogatella furcifera on insect-sensitive rice plant ARC6248 assessed as growth index at 0.025% concentration (reference value: 2.38%); format: functional
[6] = test system: Oryza sativa; assay: Effect on reducing sugar level in Sogatella furcifera-sensitive Oryza sativa (rice) plant ARC6248 leaf blade measured per gram of dry weight at 0.025% concentration (reference value: 8.37 mg/g dry wt); format: ADME, organism-based; details: in vivo
[7] = test system: Oryza sativa; assay: Effect on total amino acids level in Sogatella furcifera-sensitive Oryza sativa (rice) plant ARC6248 leaf sheath measured per gram of dry weight at 0.025% concentration (reference value: 2.11 mg/g fresh wt); format: ADME, organism-based; details: in vivo
[8] = test system: Oryza sativa; assay: Effect on total phenols level in Sogatella furcifera-sensitive Oryza sativa (rice) plant ARC6248 leaf blade measured per gram of dry weight at 0.025% concentration (reference value: 17.08 mg/g dry wt); format: ADME, organism-based; details: in vivo
[9] = test system: Sogatella furcifera; assay: Insecticidal activity against Sogatella furcifera on insect-resistanct rice plant PR116 assessed as nymphal survival at 0.025% concentration (reference value: 70.28%); format: functional
[10] = test system: Oryza sativa; assay: Effect on total amino acids level in Sogatella furcifera-resistanct Oryza sativa (rice) plant PR116 leaf sheath measured per gram of dry weight at 0.025% concentration (reference value: 2.58 mg/g […]); format: ADME, organism-based; details: in vivo
[11] = test system: Oryza sativa; assay: Effect on total amino acids level in Sogatella furcifera-sensitive Oryza sativa (rice) plant ARC6248 leaf blade measured per gram of dry weight at 0.025% concentration (reference value: 3.54 mg/g […]); format: ADME, organism-based; details: in vivo
[12] = test system: Oryza sativa; assay: Effect on reducing sugar level in Sogatella furcifera-resistanct Oryza sativa (rice) plant PR116 leaf blade measured per gram of dry weight at 0.025% concentration (reference value: 9.35 mg/g dry wt); format: ADME, organism-based; details: in vivo
[13] = test system: Oryza sativa; assay: Effect on total protein level in Sogatella furcifera-sensitive Oryza sativa (rice) plant ARC6248 leaf blade measured per gram of dry weight at 0.025% concentration (reference value: 17.67 mg/g […]); format: ADME, organism-based; details: in vivo
[14] = test system: Oryza sativa; assay: Effect on total protein level in Sogatella furcifera-sensitive Oryza sativa (rice) plant ARC6248 leaf sheath measured per gram of dry weight at 0.025% concentration (reference value: 6.11 mg/g […]); format: ADME, organism-based; details: in vivo
[15] = test system: Sogatella furcifera; assay: Insecticidal activity against Sogatella furcifera on insect-sensitive rice plant ARC6248 assessed as nymphal survival at 0.025% concentration (reference value: 34.17%); format: functional
[16] = test system: Oryza sativa; assay: Effect on total sugar level in Sogatella furcifera-sensitive Oryza sativa (rice) plant ARC6248 leaf blade measured per gram of dry weight at 0.025% concentration (reference value: 34.05 mg/g dry wt); format: ADME, organism-based; details: in vivo
[17] = test system: Oryza sativa; assay: Effect on total phenols level in Sogatella furcifera-resistanct Oryza sativa (rice) plant PR116 leaf sheath measured per gram of dry weight at 0.025% concentration (reference value: 5.75 mg/g dry wt); format: ADME, organism-based; details: in vivo
[18] = test system: Sogatella furcifera; assay: Insecticidal activity against Sogatella furcifera on insect-resistanct rice plant PR116 assessed as growth index at 0.025% concentration (reference value: 6.02%); format: functional
[19] = test system: Sogatella furcifera; assay: Insecticidal activity against Sogatella furcifera on insect-resistanct rice plant PR116 assessed as nymphal duration at 0.025% concentration (reference value: 11.75 days); format: functional
[20] = test system: Oryza sativa; assay: Effect on reducing sugar level in Sogatella furcifera-sensitive Oryza sativa (rice) plant ARC6248 leaf sheath measured per gram of dry weight at 0.025% concentration (reference value: 6.41 mg/g dry wt); format: ADME, organism-based; details: in vivo
[21] = test system: Sogatella furcifera; assay: Insecticidal activity against Sogatella furcifera on insect-sensitive rice plant ARC6248 assessed as resurgence ratio at 0.025% concentration; format: functional
[22] = test system: Oryza sativa; assay: Effect on reducing sugar level in Sogatella furcifera-resistanct Oryza sativa (rice) plant PR116 leaf sheath measured per gram of dry weight at 0.025% concentration (reference value: 7.50 mg/g dry wt); format: ADME, organism-based; details: in vivo
[23] = test system: Oryza sativa; assay: Effect on total sugar level in Sogatella furcifera-resistanct Oryza sativa (rice) plant PR116 leaf sheath measured per gram of dry weight at 0.025% concentration (reference value: 30.27 mg/g dry wt); format: ADME, organism-based; details: in vivo
[24] = test system: Oryza sativa; assay: Effect on total phenols level in Sogatella furcifera-sensitive Oryza sativa (rice) plant ARC6248 leaf sheath measured per gram of dry weight at 0.025% concentration (reference value: 12.75 mg/g dry wt); format: ADME, organism-based; details: in vivo
[25] = test system: Sogatella furcifera; assay: Insecticidal activity against Sogatella furcifera on insect-resistanct rice plant PR116 assessed as resurgence ratio at 0.025% concentration; format: functional
[26] = test system: Oryza sativa; assay: Effect on total sugar level in Sogatella furcifera-resistanct Oryza sativa (rice) plant PR116 leaf blade measured per gram of dry weight at 0.025% concentration (reference value: 36.16 mg/g dry wt); format: ADME, organism-based; details: in vivo
[27] = test system: Oryza sativa; assay: Effect on total amino acids level in Sogatella furcifera-resistanct Oryza sativa (rice) plant PR116 leaf blade measured per gram of dry weight at 0.025% concentration (reference value: 3.91 mg/g […]); format: ADME, organism-based; details: in vivo
[28] = test system: Oryza sativa; assay: Effect on total phenols level in Sogatella furcifera-resistanct Oryza sativa (rice) plant PR116 leaf blade measured per gram of dry weight at 0.025% concentration (reference value: 8.08 mg/g dry wt); format: ADME, organism-based; details: in vivo

Compound: CC1(C)[C@H](C(=O)O[C@H](C#N)c2cccc(Oc3ccccc3)c2)[C@@H]1C=C(Br)Br [DELTAMETHRIN]
- Time [1]: 14.32 days
- Activity [2]: 35.36 mg
- Activity [3]: 23.89 mg
- Activity [4]: 8 mg
- growth inhibition (GI) [5]: 2.74%
- Activity [6]: 12.28 mg
- Activity [7]: 2.95 mg
- Activity [8]: 17.08 mg
- Survival [9]: 78.05%
- Activity [10]: 3.73 mg
- Activity [11]: 4.21 mg
- Activity [12]: 14.35 mg
- Activity [13]: 19.83 mg
- Activity [14]: 7.78 mg
- Survival [15]: 38.89%
- Activity [16]: 38.84 mg
- Activity [17]: 5.42 mg
- growth inhibition (GI) [18]: 6.77%
- Time [19]: 11.63 days
- Activity [20]: 10.76 mg
- Ratio [21]: 1.28
- Activity [22]: 13.8 mg
- Activity [23]: 35.62 mg
- Activity [24]: 12 mg
- Ratio [25]: 1.75
- Activity [26]: 44.2 mg
- Activity [27]: 4.62 mg
- Activity [28]: 6.92 mg
